Reference: PMC8279484 (Journal of Medicinal Chemistry, 2021)

Columns and labels:
wild-type HEK-293 cells = experiment: Intracellular calcium flux in wild-type HEK-293 (specificity control); type: cell-based, human
Experimental: (§1) To explore the mechanism of action through which the sLXm lead compound exerts the effects seen here, its interaction with the ALX/FPR2 receptor was investigated and agonist-induced intracellular calcium transients were measured using an engineered cell line stably overexpressing the ALX/FPR2 receptor and the Gαq subunit coupled to it (Figure S6). Wild-type HEK cells were used as controls, to verify the specificity of the agonism toward ALX/FPR2, as previously reported.[36] Briefly, prior to cell plating, sterile 96-well plates (black-sided with optically clear glass flat bottoms) were PDL-coated overnight. Subsequently, 2 × 10^5 wild-type cells and overexpressed cells/well were cultured for 18 h in DMEM complete media (containing Ca^2+ and Mg^2+) to facilitate adherence prior to labeling with Fluo-4 dye. After 1 h of incubation at 37 °C with Fluo-4, cells were gently washed twice and placed in 100% Hanks’ balanced salt solution (HBSS; 37 °C) before reading the fluorescence (485/535 nm), using a spectrophotometer conjugated with an injection system (Clariostar BMG LABTECH plate reader), allowing addition to the cells of controls (1 mM ATP, a GPCR purinergic agonist, 2 nM Wp, a synthetic ALX/FPR2 agonist) or experimental treatments [10 pM, 1 nM, and 100 nM LXA41 or (R)-6].

ALX/FPR2 receptor = target: T1, ALX/FPR2 receptor (Homo sapiens, UniProt P25090); experiment: Intracellular calcium flux in FPR2+/Gαq+ stably transfected HEK-293; type: cell-based; details: ATP 1 μM; Wp 2 nM
T1 construct: host or cells: HEK-293, stably double-transfected FPR2+/Gαq+
T1 sequence (P25090 1-351): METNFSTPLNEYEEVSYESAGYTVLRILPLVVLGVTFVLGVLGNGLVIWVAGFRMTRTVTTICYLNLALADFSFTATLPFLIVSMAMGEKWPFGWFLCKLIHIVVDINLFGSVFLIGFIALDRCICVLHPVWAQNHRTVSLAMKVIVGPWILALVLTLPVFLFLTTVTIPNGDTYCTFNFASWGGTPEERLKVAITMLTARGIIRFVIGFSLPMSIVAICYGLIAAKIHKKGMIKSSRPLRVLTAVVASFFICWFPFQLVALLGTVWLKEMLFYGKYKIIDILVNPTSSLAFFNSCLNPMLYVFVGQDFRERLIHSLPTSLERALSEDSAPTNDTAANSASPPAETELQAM
Experimental: HEK-293-transfected and wt cell lines were cultured in Dulbecco’s modified Eagle’s medium (DMEM Glutamax, 4 mM L-glu and 4.50 g/L glucose—Gibco, Ireland) supplemented with heat-inactivated (30 min at 56C) 10% (v/v) FBS (Invitrogen, U.K.), 50 U penicillin, and 50 μg of streptomycin (Invitrogen, U.K.). As stably double-transfected FPR2^+/Gαq^+ HEK-293 cells were resistant to Geneticin and Hygromycin, these were used as selective antibiotics (500 and 100 μg/mL, respectively) to maintain the stable double transfection with the ALX/FPR2 receptor and the Gαq subunit coupled to it. Immediately prior to calcium measurement, fluorescently labeled cells were treated with 10^–11/–9/–7M LXA41 or sLXms using an injection system coupled to the fluorescence reader.
as §1, with “([…],” for “(1 mM ATP, a GPCR purinergic agonist,”
During calcium flux measurement, the kinetic steps involved were the following: the baseline fluorescent signal was measured for 20 s, followed by 100 s immediately after agonist injection. Subsequently, 2% Triton-X-100 was added to lyse the cells (monitoring for 20 s the maximal release of calcium ions in the extracellular environment) and, finally, 25 mM tetraacetic acid (EGTA) was added to chelate calcium ions (monitoring for additional 20 s the minimal detection of calcium ions in the extracellular environment) (Figure S7).
(§2) The “coding” of the heat-map indicates the arbitrary criteria to assign points to each single PD component (efficacy = Imax or Emax; potency = IC50 or EC50; slope = HS) to generate a final (aggregate) relative PD score. If a single PD component was greater than the reference level (x > 1), then the single-component relative score was arbitrarily set to +1 (light green) or +2 (dark green). If a single PD component was equal to the reference level (x = 1), then the single-component relative score was arbitrarily set to 0 (gray). If a single PD component was smaller than the reference level (x < 1), then the single-component relative score was arbitrarily set to −1 (light red) or −2 (dark red). If the curve of a single PD component was best fitting to a flat line (x = 0), then the single-component relative score was arbitrarily set to −4 (purple) (Table S1).

IL-1β = experiment: LPS-induced IL-1β release from THP-1 Lucia monocytes (multiplex electrochemiluminescence); type: cell-based, human; details: Dex 1 μM; 2 1 pM; LPS 50 ng/mL, 24 h
Experimental: (§3) LXA41 and all of the tested sLXms were dissolved in ethanol and further diluted in a culture medium (final ethanol concentration 0.1%; equivalent concentrations were used as the vehicle control). Prior to in vitro experiments, THP-1-Lucia NF-κB cells were harvested and plated at 1 × 10^5 cells/well on 96-well plates and left to settle in the incubator at 37 °C, 95% humidity, and 5% CO2, in 0.1% FBS-containing media, pretreated for 30 min with increasing doses of LXA41, sLXms (from 10^–12 to 10^–6 M), or appropriate controls, followed by stimulation with 50 ng/mL LPS for 24 h. Untreated (Unt) or vehicle-treated (Veh) cells were used as negative controls; 1 pM (1R)-5, the (1R)-epimer of the benzo-mimetic, was used as a positive control for any aromatic mimetic; and, finally, we compared the observed effects to the conventional glucocorticoid dexamethasone (Dex) treatment, at 1 μM.
(§4) After 24 h of exposure to LXA41, sLXms, or vehicle, followed by LPS stimulation (50 ng/mL), as described above, THP-1-Lucia NF-κB-cell supernatants were collected and cleared by centrifugation. Concentrations of IFN-γ, IL-1β, IL-6, IL-8, IL-10, IL-12p70, and TNF-α in culture supernatants were assessed by electro-chemi-luminescent detection, using a commercially available human 96-well plate “multiplex” (several analytes in the same well) kit for tissue culture samples, according to the manufacturers’ guidelines.
as §2

IFNγ = experiment: LPS-induced IFNγ release from THP-1 Lucia monocytes (multiplex electrochemiluminescence); type: cell-based, human; details: Dex 1 μM; 2 1 pM; LPS 50 ng/mL, 24 h
Experimental: as §3, §4, §2

THP-1 LUCIA monocytes [1] = experiment: Intrinsic cytotoxicity: LDH release without LPS; type: cell-based, human; details: absence of LPS, 24 h; controls Dex 1 μM, 2 1 pM, 5 1 pM
Experimental: (§5) We investigated the potential cytotoxicity of all candidate sLXms by assaying LDH release.[50] The response to LPS was arbitrarily set to 100%, and values were expressed relative to this. As previously reported by others, LPS provokes LDH release.[51] […] Ultimately, untreated cells defined the spontaneous cell release thresholds.
(§6) Lactate dehydrogenase (LDH) was assayed in cell supernatants to investigate possible cytotoxicity of the lead compound. LDH is rapidly released into the culture medium after disruption of the plasma membrane.[67],[69] After 24 h of exposure to sLXms, vehicle, or controls, followed by LPS stimulation, as described above, THP-1-Lucia NF-κB-cell supernatants were collected and LDH was assayed. Cytotoxicity was evaluated relative to vehicle controls. Maximum releasable LDH was determined in cells lysed with 2% Triton-X-100 (Sigma-Aldrich, Ireland). LDH levels were assessed by reading the absorbance at 490 nm (protein) and 690 nm (background noise), using a spectrophotometer (SPECTRAMAX M2, Molecular Devices (U.K.) Limited).

IL-6 = experiment: LPS-induced IL-6 release from THP-1 Lucia monocytes (multiplex electrochemiluminescence); type: cell-based, human; details: Dex 1 μM; 2 1 pM; LPS 50 ng/mL, 24 h
Experimental: as §3, §4, §2

NF-κB = test system: NF-κB; design: method as in PMID 30213823; details: LXA4 1 0.1 nM; 2 1 nM; cited from earlier work
C57BL/6J mice = experiment: Murine zymosan-induced peritonitis; type: in vivo, mouse
Experimental: Male C57BL/6J mice of 9 weeks of age were purchased from Charles River (Kent, U.K.) and were housed in a specific pathogen-free facility in individually ventilated and filtered cages under positive pressure. Peritonitis was induced in mice by ip injection of zymosan (purchased from Sigma-Aldrich; 1 mg per mouse in 0.5 mL of phosphate-buffered saline (PBS)).[73] Mice were treated with dexamethasone (1 μg/g) purchased from Sigma-Aldrich 1 h prior to zymosan injection or (R)-6 (2 and 6 ng/g) (200 μL IP) 30 min prior to zymosan injection. Peritoneal cells were collected by lavage 4 h after injection of zymosan. The local Animal Use and Care Committee and The UK Home Office approved the animal experiments in accordance with the derivatives of both The Home Office Guidance on the Operation of Animals (Scientific Procedures) Act 1986 and The Guide for the Care and Use of Laboratory Animals of the National Research Council.
Surface marker expression on peritoneal cells was assessed by flow cytometry with data collection on a FACSCalibur (Becton Dickinson). Data were analyzed with FlowJo analysis software (Treestar Inc.). Cells were stained with AlexaFluor488 conjugated anti-F4/80 (clone BM8; eBioscience); APC conjugated anti-CD11b (clone M1/70; eBioscience) and Pacific blue conjugated anti-Ly6G (clone 1A8; BioLegend) antibodies. Prior to surface staining, peritoneal cells were counted manually (Neubauer chamber) with Turks solution. Using appropriate fluorescence minus one (FMO) controls, quadrants were drawn, and data were plotted on logarithmic-scale density- or dot-plots.

THP-1 LUCIA monocytes [2] = experiment: Extrinsic cytotoxicity: LDH release after LPS challenge; type: cell-based, human; details: Dex 1 μM
Experimental: as §5, §6

IL-8 = experiment: LPS-induced IL-8 release from THP-1 Lucia monocytes (multiplex electrochemiluminescence); type: cell-based, human; details: Dex 1 μM; 1 1 nM; (R)-6 concentration not given
Experimental: as §3, §4

| Compound | Ca^2+ mobilization in wild-type HEK-293 cells (wild-type HEK-293 cells) | Ca^2+ mobilization by positive controls (ALX/FPR2 receptor) | Imax, IL-1β release, single-point controls (IL-1β) [%] | attenuation of IFNγ release, single-point controls (IFNγ) | intrinsic LDH release versus vehicle / spontaneous cell release (THP-1 LUCIA monocytes [1]) | Imax, IL-6 release, single-point controls (IL-6) [%] | effect on TNF-α-stimulated NF-κB activity (NF-κB) | Total no of PMNs (C57BL/6J mice; Dex ip (1 mg/kg in Figure 9) + zymosan 40 mg/kg, n = 5 mice) | relative proportion of PMNs and monocytes/macrophages (flow cytometry) (C57BL/6J mice; peritoneal cells, data not shown) | effect on LPS-induced LDH (THP-1 LUCIA monocytes [2]) | enhancement of LPS-induced secretion of IL-8 (IL-8) [fold] |
| --- | --- | --- | --- | --- | --- | --- | --- | --- | --- | --- | --- |
| Nc1ncnc2c1ncn2[C@@H]1O[C@H](COP(=O)(O)OP(=O)(O)OP(=O)(O)O)[C@@H](O)[C@H]1O [ATP] | stimulated Ca^2+ mobilization | Ca^2+ mobilization was observed | – | – | – | – | – | – | – | – | – |
| CCCCC[C@@H](O)c1ccccc1/C=C/[C@@H](O)[C@@H](O)CCCC(=O)OC [Compound 2, benzo-LXA4, reference compound] | – | – | 59 ± 4 | did not significantly alter | did not display any significant cytotoxic effect | 42 ± 3 | reduced TNF-α-stimulated NF-κB activity | – | – | – | – |
| C[C@@H]1C[C@H]2[C@@H]3CCC4=CC(=O)C=C[C@]4(C)[C@@]3(F)[C@@H](O)C[C@]2(C)[C@@]1(O)C(=O)CO [Dex, dexamethasone, reference compound] | – | – | 86 ± 6 | 56 ± 2% | did not display any significant cytotoxic effect | 98 ± 1 | – | 2.4 ± 0.7 × 10^6/mL | not to be altered | did not reduce LPS-induced LDH | 2.5 |
| W-peptide [Wp] | without effect | Ca^2+ mobilization was observed | – | – | – | – | – | – | – | – | – |
